Experimental data: patent US11787762B2, “Tetralin and tetrahydroquinoline compounds as inhibitors of HIF-2alpha” (ARCUS BIOSCIENCES, INC., priority 2020, dated 2023)
pIC50: −log10 of the molar value.

Assays:
[1] = target: T1, Histidine tagged HIF-2α protein containing PAS-B domain (240-350) (Homo sapiens, UniProt Q99814); assay: HIF-2α Scintillation Proximity Assay (SPA) binding assay; details: 50 nM HIF-2α protein, 25 nM 3H-tracer
T1 construct: HIF-2α protein containing PAS-B domain (240-350); made in house
T1 sequence (Q99814 240-350): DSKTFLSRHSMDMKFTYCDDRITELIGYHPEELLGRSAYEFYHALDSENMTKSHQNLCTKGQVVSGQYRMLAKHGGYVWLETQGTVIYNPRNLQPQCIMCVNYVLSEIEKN
Procedure: HIF-2α Scintillation Proximity Assay (SPA) Binding Assay:
Tritium labeled compound N-(3-chlorophenyl)-4-nitro-2,1,3-benzoxadiazol-5-amine was obtained from American Radiolabeled Chemicals Inc. and copper chelate PVT SPA beads were from PerkinElmer (Cat #RPNQ0095). Histidine tagged HIF-2α protein containing PAS-B domain (240-350) was prepared and purified in house.
Compounds solubilized in DMSO were dispensed into a white 384-well polystyrene non-binding flat clear bottom plate (Greiner Bio-One, Cat #781903) using an HP D300 dispenser. Ten microliters of HIS-tagged HIF-2α protein in buffer (25 mM Tris-HCl, pH 7.4, 150 mM NaCl, 0.15% BSA and 0.001% Tween 20) was added to the compound wells and allowed to incubate for 1 hour at room temperature. Ten microliters of SPA bead mix were added to the wells and incubated for an additional 45 minutes, followed by 10 ul of ^3H-tracer solution. Final assay conditions comprised 50 nM HIF-2α protein, 25 nM radiolabeled tracer and 3 ug beads per well with compounds in 2% DMSO. The plate was read using a MicroBeta Microplate Counter (PerkinElmer) for luminescence detection. The IC50 values of the test compounds were determined from compound dose response curves fitted using a standard four parameter fit equation and are reported in Table 1, Table 2, and Table 3.

HIF-2α = target: T2, HIF-2α (Homo sapiens, UniProt Q99814); assay: HIF-2α luciferase reporter assay in HIF-Luc-786-O cells; type: cell-based
T2 construct: host or cells: 786-O cells stably transduced with Cignal Lenti HIF Luc Reporter (only the reporter was introduced, not HIF-2α)
T2 sequence (Q99814 whole entry): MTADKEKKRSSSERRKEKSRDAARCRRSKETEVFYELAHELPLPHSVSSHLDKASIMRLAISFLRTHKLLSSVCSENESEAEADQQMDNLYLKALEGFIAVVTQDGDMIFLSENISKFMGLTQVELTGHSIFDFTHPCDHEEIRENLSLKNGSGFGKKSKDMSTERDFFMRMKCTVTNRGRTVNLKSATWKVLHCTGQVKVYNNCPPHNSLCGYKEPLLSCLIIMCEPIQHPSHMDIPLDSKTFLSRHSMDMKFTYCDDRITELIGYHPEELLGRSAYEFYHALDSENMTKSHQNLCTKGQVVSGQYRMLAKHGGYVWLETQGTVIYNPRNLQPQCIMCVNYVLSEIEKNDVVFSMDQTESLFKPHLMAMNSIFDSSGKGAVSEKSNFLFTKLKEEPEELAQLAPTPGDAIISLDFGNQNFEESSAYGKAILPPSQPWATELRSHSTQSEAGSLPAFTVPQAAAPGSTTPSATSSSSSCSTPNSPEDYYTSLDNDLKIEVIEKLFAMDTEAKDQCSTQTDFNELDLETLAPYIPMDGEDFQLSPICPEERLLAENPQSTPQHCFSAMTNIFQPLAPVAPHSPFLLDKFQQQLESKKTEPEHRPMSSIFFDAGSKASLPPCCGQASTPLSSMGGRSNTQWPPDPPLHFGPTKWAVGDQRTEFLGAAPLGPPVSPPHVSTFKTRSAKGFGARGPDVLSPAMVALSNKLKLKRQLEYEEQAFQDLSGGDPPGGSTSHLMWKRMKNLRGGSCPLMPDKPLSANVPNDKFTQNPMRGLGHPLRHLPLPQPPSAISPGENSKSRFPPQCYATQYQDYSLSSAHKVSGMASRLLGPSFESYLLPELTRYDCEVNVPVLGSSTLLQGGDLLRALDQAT
How it was run: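 786-O cells stably carrying a HIF-responsive luciferase reporter, 20,000/well in OptiMem with 1% DMSO, exposed to compound up to 50 uM for 20 h at 37 °C. ONE-Glo luminescence normalised to DMSO and no-cell controls; IC50 by four-parameter fit.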

Row | Compound | pIC50 ([1]; Table 1) | pIC50 (HIF-2α; Table 1, 20 hours incubation) | further results
1 | Cn1nncc1-c1ccc([C@H]2CC[C@H](F)c3cc(F)cc(C#N)c32)c2c1[C@H](O)C(F)(F)C2 [Example 147, (5S,8R)-8-[(1S)-2,2-difluoro-1-hydroxy-7-(3-methyltriazol-4-yl)-1,3-dihydroinden-4-yl]-3,5-difluoro-5,6,7,8-tetrahydronaphthalene-1-carbonitrile] |  |  | pIC50 ([1]; Table 3): > 7.00; pIC50 (HIF-2α; Table 3, 20 hours incubation): > 7.00
2 | O=S1(=O)c2ccc(C3CCCc4cc(F)cc(F)c43)c(Cl)c2C(O)C1(F)F (stereo not shown) [Example 103] | < 6.00 | < 6.00 | 
3 | Cc1ccc2c(c1)N(c1ccc(S(=O)(=O)C(F)(F)F)cc1[N+](=O)[O-])CCC2 [Example 74] | < 6.00 | < 6.00 | 
4 | COC1CCN(c2ccc(C(F)(F)F)c(F)c2C#N)c2c(C#N)cc(F)cc21 (stereo not shown) [Example 131, 1-[2-Cyano-3-fluoro-4-(trifluoromethyl)phenyl]-6-fluoro-4-methoxy-3,4-dihydro-2H-quinoline-8-carbonitrile] |  |  | pIC50 ([1]; Table 2): > 7.00; pIC50 (HIF-2α; Table 2, 20 hours incubation): > 7.00
5 | O=S(=O)(c1ccc(N2CCCc3cc(F)cc(F)c32)c2c1C(F)CC2)C(F)(F)F (stereo not shown) [Example 49] | 6.00 to 7.00 | < 6.00 | 
6 | Fc1cc(F)c2c(c1)CCCN2c1ccc(C(F)(F)F)nc1 [Example 35] | < 6.00 | 6.00 to 7.00 | 
7 | N#Cc1cc(F)cc2c1N(c1ccc(C(F)(F)F)c(C#N)c1Cl)CCO2 [Example 36] | 6.00 to 7.00 | 6.00 to 7.00 | 
8 | COC(=O)c1cc(N2CCCc3cc(F)cc(F)c32)ccc1S(=O)(=O)C(F)(F)F [Example 77] | < 6.00 | < 6.00 | 
9 | Cc1c(N2CCC(F)(F)c3cc(F)cc(C#N)c32)cnc(C(F)(F)F)c1F [Example 129, 4,4,6-Trifluoro-1-[5-fluoro-4-methyl-6-(trifluoromethyl)pyridin-3-yl]-2,3-dihydroquinoline-8-carbonitrile] |  |  | pIC50 ([1]; Table 2): > 7.00; pIC50 (HIF-2α; Table 2, 20 hours incubation): > 7.00
10 | CS(=O)(=O)c1ccc([C@H]2CCC(F)(F)c3cc(F)cc(C#N)c32)c2c1[C@H](O)[C@H](F)C2 [Example 135, (8R)-3,5,5-Trifluoro-8-[(1S,2R)-2-fluoro-1-hydroxy-7-methylsulfonyl-2,3-dihydro-1H-inden-4-yl]-7,8-dihydro-6H-naphthalene-1-carbonitrile] |  |  | pIC50 ([1]; Table 2): > 7.00; pIC50 (HIF-2α; Table 2, 20 hours incubation): > 7.00
11 | CS(=O)(=O)c1ccc([C@H]2CCCc3cc(F)cc(F)c32)c2c1[C@H](O)[C@H](F)C2 [Example 4, (1S,2R)-4-[(1R)-6,8-difluoro-1,2,3,4-tetrahydronaphthalen-1-yl]-2-fluoro-7-methanesulfonyl-2,3-dihydro-1H-inden-1-ol] | > 7.00 | 6.00 to 7.00 | 
12 | N#Cc1cc(F)cc2c1N(c1ccc(C(F)(F)F)c(F)c1CO)CCC2 [Example 42] | 6.00 to 7.00 | < 6.00 | 
13 | O=S(=O)(c1ccc(N2CCCc3cc(F)cc(F)c32)c2cccnc12)C(F)(F)F [Example 21, 6,8-difluoro-8′-trifluoromethanesulfonyl-3,4-dihydro-2H-1,5′-biquinoline] | < 6.00 | < 6.00 | 
14 | O=[N+]([O-])c1cc(S(=O)(=O)C(F)(F)F)ccc1N1CCCc2ccc(F)c(F)c21 [Example 57] | < 6.00 | < 6.00 | 
15 | CC(O)(c1ccc(N2CCCc3cc(F)cc(C#N)c32)c([N+](=O)[O-])c1)C(F)(F)F (stereo not shown) [Example 59] | < 6.00 | < 6.00 | 
16 | O=S(=O)(c1ccc(N2CCCc3cc(F)cc(F)c32)c2c1C(O)C(F)(F)C2)C(F)(F)F (stereo not shown) [Example 38] | 6.00 to 7.00 | 6.00 to 7.00 | 
17 | N#Cc1cc(F)cc2c1[C@@H](c1ccc(C(F)(F)F)c3c1OC(F)(F)[C@H]3O)CCC2 [Example 91] | > 7.00 | > 7.00 | 
18 | N#Cc1cc(F)cc2c1N(c1ccc(C(F)(F)F)c(F)c1C(O)C(F)(F)F)CCC2 (stereo not shown) [Example 61] | < 6.00 | < 6.00 | 
19 | CS(=O)(=O)c1ccc([C@H]2CCCc3cccc(C#N)c32)c2c1[C@H](O)[C@H](F)C2 [Example 97] | 6.00 to 7.00 | 6.00 to 7.00 | 
20 | OCc1cc(N2CCCc3cc(F)cc(F)c32)ccc1C(F)(F)F [Example 63] | < 6.00 | < 6.00 | 
